The DC50 is the concentration giving 50% degradation. The Dmax is the greatest extent of degradation seen.

Bounds are passed on as bounds.

The results in this text go back to US20250017922A1, “BIFUNCTIONAL COMPOUNDS FOR DEGRADING BTK WITH ENHANCED IMID ACTIVITY” (NURIX THERAPEUTICS, INC., priority 2021, published 2025).

One series addresses T1, Aiolos (Homo sapiens, UniProt Q96SW2+Q9UKT9).
T1 construct: endogenous in cells; host or cells: human PBMCs (CD20+CD3- B cells, CD3+CD20- T cells)
Description: Aiolos degradation in human PBMCs, flow cytometry (IMiD activity). It is filed as cell-based. Particulars: 24 hours; for DC50: Aiolos degradation; for Dmax: read-out: Dmax (maximum percent Aiolos degradation). The procedure:
Frozen human peripheral blood mononuclear cells (PBMCs) were thawed and treated with DMSO or compound for 24 hours and then fixed and permeabilized using a Foxp3/Transcription Factor Fixation/Permeabilization Kit (eBioscience, 00-5523). Cells were stained with fluorophore-conjugated antibodies against CD20 (Biolegend 302330), CD3 (BD Pharmingen 552127), and Aiolos (Biolegend 371106). An additional set of DMSO-treated PBMCs was stained for CD20, CD3, and an AlexaFluor 647-conjugated mouse IgG1 isotype control antibody (Biolegend 400136). Stained cells were run on an Attune NxT Acoustic Focusing Flow Cytometer (Thermo-Fisher A29004), and data was analyzed using FlowJo (v10.5.3) and GraphPad Prism (v7.00) software. Single lymphocytes were gated for B cells (CD20+CD3−) and T cells (CD3+CD20−), and the geometric mean fluorescence intensity (MFI) of Aiolos was calculated for each population. The MFI of the isotype control was calculated for each population and used to quantify background staining. Percent Aiolos degradation was calculated for each compound-treated sample using the following equation: […]
DC50 is the compound concentration degrading […] of Aiolos. Dmax is the maximum percent Aiolos degradation in the assay.

For a further series, the target named is T2, BTK (Homo sapiens, UniProt Q06187).
T2 construct: host or cells: preclinical models (not described)
Description: BTK degradation and anti-tumor activity in preclinical models. It is filed as in vivo.

Another series has as its system arthritis. The series is described as follows: Arthritis model, clinical arthritis score and body weight. The following applies: daily oral treatment at 30 mg/kg, compared to dexamethasone and vehicle. It is filed as in vivo, mice. How it is done: Significance of clinical arthritis score (A) was determined from the area under the curve (AUC) of mean paw scores calculated for individual mice. (C) Serum levels of anti-type II collagen IgG. Statistical significance was determined between vehicle control and treated groups with one-way Kruskal-Wallis ANOVA and Dunn's multiple comparisons test.

A further series concerns the target T3, Ikaros (Homo sapiens, UniProt Q13422+Q96SW2).
T3 construct: from tissue; host or cells: patient PBMCs, lysed after in vivo dosing
The series is described as follows: Ikaros degradation in patient PBMCs, Western blot (Jess Simple Western). It is filed as in vivo. Particulars: Cycle 1 Day 8. The procedure: Frozen patient PBMCs collected at baseline and at Cycle 1 Day 8 were processed into protein lysate and degradation of cereblon neo-substrate Ikaros was determined using Western blot via Jess™ Simple Western automated system. […] Patients receiving 300 mg Compound 5, 75.2-95.7% Ikaros degradation was detected.
Frozen PBMCs from patients were prepared and Ikaros protein levels were assessed using Western blot via Jess™ Simple Western automated system.
FIG. 7A, densitometric analysis of Ikaros degradation in all patients were obtained after normalization to β-actin and % Ikaros degradation was calculated relative to Baseline values from each patient.
For Ikaros degradation assessment, patient PBMCs were lysed in lysis buffer RIPA buffer (Fisher, PI89901), complete Mini EDTA-free protease inhibitor (Sigma 11836170001), Protease Inhibitor Cocktail (Sigma, P2714) and Phosphatase Inhibitor Cocktail 2 and 3 (Sigma, P5726 and P0044) and stored overnight at −80° C. Cells were then thawed and centrifuged for 5 min at 8000×g and lysate supernatants were transferred to a fresh tube. Protein levels were determined by BCA Assay performed according to manufacturer's protocol (EMD Millipore, cat. no. 71285-3). A total of 3 μg protein was loaded and 1:50 dilution of primary anti-Ikaros (Cell Signaling Technology, cat. 14859) and 1:50 anti-β-Actin (Cell Signaling Technology, cat. 8457) was used. […]
(A western blot detects proteins with antibodies after separation by electrophoresis.)

T1 sequence (Q9UKT9 whole entry): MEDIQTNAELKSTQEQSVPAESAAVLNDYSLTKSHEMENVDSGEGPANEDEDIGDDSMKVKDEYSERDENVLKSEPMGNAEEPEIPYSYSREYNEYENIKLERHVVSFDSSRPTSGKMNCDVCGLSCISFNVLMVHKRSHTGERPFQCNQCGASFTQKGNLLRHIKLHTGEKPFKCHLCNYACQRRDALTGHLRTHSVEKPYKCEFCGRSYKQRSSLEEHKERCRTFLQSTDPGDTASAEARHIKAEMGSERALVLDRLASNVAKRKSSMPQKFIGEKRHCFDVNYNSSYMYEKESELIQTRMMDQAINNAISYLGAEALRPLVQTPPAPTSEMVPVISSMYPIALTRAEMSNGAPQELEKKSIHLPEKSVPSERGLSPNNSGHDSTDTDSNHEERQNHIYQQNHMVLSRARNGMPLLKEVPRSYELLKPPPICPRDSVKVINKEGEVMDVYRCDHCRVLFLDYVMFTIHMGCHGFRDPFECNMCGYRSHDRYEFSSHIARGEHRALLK
T1 sequence (Q96SW2 whole entry): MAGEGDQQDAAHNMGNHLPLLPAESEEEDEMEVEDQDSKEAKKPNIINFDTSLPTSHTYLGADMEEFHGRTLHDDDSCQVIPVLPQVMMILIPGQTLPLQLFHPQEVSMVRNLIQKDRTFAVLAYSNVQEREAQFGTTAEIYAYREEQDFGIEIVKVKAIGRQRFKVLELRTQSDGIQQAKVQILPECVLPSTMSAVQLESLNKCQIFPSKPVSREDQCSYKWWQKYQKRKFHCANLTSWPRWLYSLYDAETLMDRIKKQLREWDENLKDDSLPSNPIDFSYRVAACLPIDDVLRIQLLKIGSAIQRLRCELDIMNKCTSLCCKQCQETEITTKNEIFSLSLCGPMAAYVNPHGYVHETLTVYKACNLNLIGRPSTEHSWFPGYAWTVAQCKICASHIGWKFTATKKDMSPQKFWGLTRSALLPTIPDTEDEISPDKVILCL
T1 sequence (Q16531 whole entry partner): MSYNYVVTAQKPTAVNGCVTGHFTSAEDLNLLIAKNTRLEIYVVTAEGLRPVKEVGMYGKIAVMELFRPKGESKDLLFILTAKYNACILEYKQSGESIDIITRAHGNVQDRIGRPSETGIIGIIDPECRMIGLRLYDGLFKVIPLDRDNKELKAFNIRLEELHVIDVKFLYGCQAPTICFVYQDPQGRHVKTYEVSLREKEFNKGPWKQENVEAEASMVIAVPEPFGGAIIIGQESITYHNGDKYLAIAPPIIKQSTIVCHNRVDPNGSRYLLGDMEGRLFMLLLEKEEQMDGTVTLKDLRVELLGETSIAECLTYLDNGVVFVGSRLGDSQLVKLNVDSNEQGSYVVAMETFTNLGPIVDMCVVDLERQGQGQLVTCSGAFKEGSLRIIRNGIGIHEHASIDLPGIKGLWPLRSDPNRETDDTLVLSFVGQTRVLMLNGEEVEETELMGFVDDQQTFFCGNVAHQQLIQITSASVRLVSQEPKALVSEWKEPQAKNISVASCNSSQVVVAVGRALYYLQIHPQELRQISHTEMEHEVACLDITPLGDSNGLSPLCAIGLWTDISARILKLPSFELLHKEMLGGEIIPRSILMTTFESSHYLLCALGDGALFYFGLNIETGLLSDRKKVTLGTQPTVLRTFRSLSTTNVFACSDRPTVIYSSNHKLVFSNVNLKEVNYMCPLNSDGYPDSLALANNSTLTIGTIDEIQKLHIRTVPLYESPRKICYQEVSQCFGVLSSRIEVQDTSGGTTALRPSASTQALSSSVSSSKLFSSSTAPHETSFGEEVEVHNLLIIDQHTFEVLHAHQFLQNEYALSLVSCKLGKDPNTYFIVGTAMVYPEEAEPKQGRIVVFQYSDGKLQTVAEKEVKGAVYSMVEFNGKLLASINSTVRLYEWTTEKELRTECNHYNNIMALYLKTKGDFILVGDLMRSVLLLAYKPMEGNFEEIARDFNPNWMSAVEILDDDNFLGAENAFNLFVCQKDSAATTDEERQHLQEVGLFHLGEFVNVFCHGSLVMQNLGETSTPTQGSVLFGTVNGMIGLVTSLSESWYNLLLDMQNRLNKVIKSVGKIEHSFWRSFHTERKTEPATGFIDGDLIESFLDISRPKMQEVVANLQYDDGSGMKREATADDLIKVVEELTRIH
T3 sequence (Q13422 whole entry): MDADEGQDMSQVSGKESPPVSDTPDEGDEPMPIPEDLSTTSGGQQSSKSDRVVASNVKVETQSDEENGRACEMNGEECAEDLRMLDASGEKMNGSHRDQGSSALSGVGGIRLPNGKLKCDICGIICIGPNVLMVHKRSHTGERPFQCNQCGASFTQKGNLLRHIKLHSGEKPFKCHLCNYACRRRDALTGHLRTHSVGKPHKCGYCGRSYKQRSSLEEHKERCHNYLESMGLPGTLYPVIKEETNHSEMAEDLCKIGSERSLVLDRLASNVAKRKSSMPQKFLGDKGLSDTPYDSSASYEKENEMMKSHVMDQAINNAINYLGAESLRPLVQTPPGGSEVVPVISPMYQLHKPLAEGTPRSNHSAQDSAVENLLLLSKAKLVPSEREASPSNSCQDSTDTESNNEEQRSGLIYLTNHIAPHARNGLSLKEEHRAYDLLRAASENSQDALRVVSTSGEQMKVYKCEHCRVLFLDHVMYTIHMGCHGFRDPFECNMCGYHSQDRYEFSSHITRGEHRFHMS
T3 sequence (Q96SW2 whole entry): as the sequence (Q96SW2 whole entry) above
T3 sequence (Q16531 whole entry partner): as the sequence (Q16531 whole entry partner) above
T2 sequence (Q06187 whole entry, species assumed): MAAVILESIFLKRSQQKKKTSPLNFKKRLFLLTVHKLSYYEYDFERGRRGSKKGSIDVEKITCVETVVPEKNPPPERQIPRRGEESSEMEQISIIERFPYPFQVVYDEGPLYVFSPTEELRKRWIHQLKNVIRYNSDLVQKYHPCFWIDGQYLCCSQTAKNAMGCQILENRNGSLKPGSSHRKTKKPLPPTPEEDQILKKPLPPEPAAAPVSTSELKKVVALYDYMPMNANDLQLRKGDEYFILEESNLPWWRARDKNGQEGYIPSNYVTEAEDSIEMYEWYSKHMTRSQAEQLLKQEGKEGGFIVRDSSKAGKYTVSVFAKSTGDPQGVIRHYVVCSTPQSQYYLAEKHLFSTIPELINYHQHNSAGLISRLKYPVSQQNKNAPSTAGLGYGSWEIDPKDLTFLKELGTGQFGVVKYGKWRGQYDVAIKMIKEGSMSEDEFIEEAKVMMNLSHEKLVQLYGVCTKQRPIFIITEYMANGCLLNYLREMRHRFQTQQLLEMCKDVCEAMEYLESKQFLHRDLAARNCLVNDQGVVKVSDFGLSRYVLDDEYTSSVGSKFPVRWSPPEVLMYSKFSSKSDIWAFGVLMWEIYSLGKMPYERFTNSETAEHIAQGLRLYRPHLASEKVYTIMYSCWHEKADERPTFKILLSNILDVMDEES

For `NC(=O)c1ncc(N2CCCCC2)nc1Nc1ccc2c(c1)CCN(C1CN(c3ccc4c(c3)C(=O)N(C3CCC(=O)NC3=O)C4=O)C1)C2` (racemic) [Compound 2, rac-3-{[2-(1-{2-[(3R)-2,6-dioxopiperidin-3-yl]-1,3-dioxoisoindol-5-yl}azetidin-3-yl)-3,4-dihydro-1H-isoquinolin-6-yl]amino}-5-(piperidin-1-yl)pyrazine-2-carboxamide], on Aiolos, the DC50 was found to be 5.2 nM and the Dmax is 94.7%.

Turning to `NC(=O)c1ncc(N2CCCCC2)nc1Nc1ccc2c(c1)CCN(C[C@H]1CCN(c3ccc4c(c3)C(=O)N(C3CCC(=O)NC3=O)C4=O)C1)C2` (stereo partly drawn) [Compound 1], at Aiolos, the DC50 is 27 nM and the Dmax stood at 77.4%.

With `CN1CCN([C@@H]2CCCN(c3cnc(C(N)=O)c(Nc4ccc(C5CCN(C[C@H]6CC[C@H](Nc7cccc8c7C(=O)N(C7CCC(=O)NC7=O)C8=O)CC6)CC5)cc4)n3)C2)C1=O` (stereo partly drawn) [Compound 3], on Aiolos, the DC50 was 93 nM and the Dmax came to 84.9%.

`CN1CCN([C@@H]2CCCN(c3cnc(C(N)=O)c(Nc4ccc(C5CCN(CCCNc6cccc7c6C(=O)N(C6CCC(=O)NC6=O)C7=O)CC5)cc4)n3)C2)C1=O` (stereo partly drawn) [Compound 4]: at Aiolos, the DC50 was found to be 8 nM and the Dmax was found to be 87%.

On BTK, `NC(=O)c1ncc(N2CCCCC2)nc1Nc1ccc(C2CCN(C[C@@H]3CCN(c4ccc5c(c4)C(=O)N(C4CCC(=O)NC4=O)C5=O)C3)CC2)cc1` (stereo partly drawn) [Compound 5] registered a BTK degradation of no less than 80%. Also, on Aiolos, half-maximal degradation (DC50) was put at 22 nM and the Dmax is 89.1%. Also, the body weight loss result in the series on arthritis is “minimal body weight loss”. In addition, at Ikaros (patients receiving 300 mg), the Ikaros degradation is 75.2-95.7%. On Ikaros (patients receiving either 100 or 200 mg), the Ikaros degradation is reported as 26.1-60.5%.

Take `CN1CCN([C@H]2CCCN(c3cnc(C(N)=O)c(Nc4cnn(C5CCN(CC6CN(c7ccc8c(c7)C(=O)N(C7CCC(=O)NC7=O)C8=O)C6)CC5)c4)n3)C2)C1=O` (stereo partly drawn) [Compound 6]: on Aiolos, it took 23 nM to reach half-maximal degradation (DC50) and the maximal degradation (Dmax) is 70.8%.

`CN1CCN([C@H]2CCCN(c3cnc(C(N)=O)c(Nc4ccc5c(c4)CCN(CC4CN(c6ccc7c(c6)C(=O)N(C6CCC(=O)NC6=O)C7=O)C4)C5)n3)C2)C1=O` (stereo partly drawn) [Compound 7]: at Aiolos, the DC50 turned out to be 4 nM and the maximal degradation (Dmax) is 98.2%.

Consider `CN1CCN([C@@H]2CCCN(c3cnc(C(N)=O)c(Nc4ccc5c(c4)CCN(C4CN(c6ccc7c(c6)C(=O)N(C6CCC(=O)NC6=O)C7=O)C4)C5)n3)C2)C1=O` (stereo partly drawn) [Compound 8], for which, on Aiolos, the DC50 is 1 nM and the Dmax came to 98.4%.

On to `CN1CCN([C@@H]2CCCN(c3cnc(C(N)=O)c(Nc4ccc5c(c4)CCN(CC4CCN(c6ccc7c(c6)C(=O)N(C6CCC(=O)NC6=O)C7=O)CC4)C5)n3)C2)C1=O` (stereo partly drawn) [Compound 9], for which, on Aiolos, the DC50 was determined as 12 nM and the Dmax came out at 86.5%.

With `CN1CCN([C@@H]2CCCN(c3cnc(C(N)=O)c(Nc4ccc(N5CC6(C5)CN(c5ccc7c(c5)C(=O)N(C5CCC(=O)NC5=O)C7=O)C6)cc4)n3)C2)C1=O` (stereo partly drawn) [Compound 10], on Aiolos, it took 9 nM to reach half-maximal degradation (DC50) and the Dmax is 83.1%.

Consider `CN1CCN([C@@H]2CCCN(c3cnc(C(N)=O)c(Nc4ccc(C5CN(C6CCN(c7ccc8c(c7)C(=O)N(C7CCC(=O)NC7=O)C8=O)CC6)C5)cc4)n3)C2)C1=O` (stereo partly drawn) [Compound 11], for which, at Aiolos, half-maximal degradation (DC50) was put at 20 nM and the Dmax turned out to be 78.7%.

`CN1CCN([C@@H]2CCCN(c3cnc(C(N)=O)c(Nc4ccc(N5CCN(C[C@@H]6[C@H]7CN(c8ccc9c(c8)C(=O)N(C8CCC(=O)NC8=O)C9=O)C[C@@H]67)CC5)cc4)n3)C2)C1=O` (stereo partly drawn) [Compound 12]: at Aiolos, the DC50 stood at 7 nM and the Dmax was 65.1%.

Consider `CN1CCN([C@@H]2CCCN(c3cnc(C(N)=O)c(Nc4ccc(C5CCN(C[C@H]6CCN(c7ccc8c(c7)C(=O)N(C7CCC(=O)NC7=O)C8=O)C6)CC5)cc4)n3)C2)C1=O` (stereo partly drawn) [Compound 13], for which, at Aiolos, the DC50 turned out to be 33 nM and the Dmax was found to be 73.9%.

Take `CN1CCN([C@@H]2CCCN(c3cnc(C(N)=O)c(Nc4ccc(C5CCN(CC6CCN(c7ccc8c(c7)C(=O)N(C7CCC(=O)NC7=O)C8=O)CC6)CC5)cc4)n3)C2)C1=O` (stereo partly drawn) [Compound 14]: on Aiolos, half-maximal degradation (DC50) was put at 11 nM and the Dmax was 74%.

As for `CN1CCN([C@@H]2CCCN(c3cnc(C(N)=O)c(Nc4ccc(C5CCN(C6CN(c7ccc8c(c7)C(=O)N(C7CCC(=O)NC7=O)C8=O)C6)CC5)cc4)n3)C2)C1=O` (stereo partly drawn) [Compound 15], at Aiolos, it took 17 nM to reach half-maximal degradation (DC50) and the Dmax came to 74.7%.

For the molecule `CN1CCN([C@@H]2CCCN(c3cnc(C(N)=O)c(Nc4ccc(OCCCNc5ccc6c(c5)C(=O)N(C5CCC(=O)NC5=O)C6=O)cc4)n3)C2)C1=O` (stereo partly drawn) [Compound 16], on Aiolos, the DC50 came to 24 nM and the Dmax was found to be 95.7%.

In the case of `CN1CCN([C@@H]2CCCN(c3cnc(C(N)=O)c(Nc4ccc(C5(C)CCN(C(=O)CCOCCC(=O)Nc6cccc7c6CN(C6CCC(=O)NC6=O)C7=O)CC5)cc4)n3)C2)C1=O` (stereo partly drawn) [Compound 17], at Aiolos, it took 560 nM to reach half-maximal degradation (DC50) and the Dmax was found to be 51.9%.

Take `CN1CCN([C@@H]2CCCN(c3cnc(C(N)=O)c(Nc4ccc(N5CCN(CCCCc6cccc7c6CN(C6CCC(=O)NC6=O)C7=O)CC5)cc4)n3)C2)C1=O` (stereo partly drawn) [Compound 18]: at Aiolos, the DC50 was found to be 9 nM and the Dmax stood at 81.6%.

Regarding `CN1CCN([C@@H]2CCCN(c3cnc(C(N)=O)c(Nc4ccc(C5CCN(C(=O)CCOCCNc6cccc7c6C(=O)N(C6CCC(=O)NC6=O)C7=O)CC5)cc4)n3)C2)C1=O` (stereo partly drawn) [Compound 19], at Aiolos, half-maximal degradation (DC50) was put at 1 nM and the Dmax is 98.6%.
